In patent US20250302832A1, “PYRAZINE DERIVATIVES AND USES THEREOF” (FOGHORN THERAPEUTICS INC., priority 2022, published 2025):

Tests used:
[1] = molecular target: T1, HiBit-BRM fusion protein (Homo sapiens, UniProt P51531); assay: HiBiT-BRM cell-based degradation assay (Nano-Glo HiBiT lytic detection, 24 h); conditions: HeLa cell line expressing HiBiT-BRM; for DC50: read-out: BRM HiBit Degradation IC50
T1 construct: expressed in transfected cells
How it was run: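 Luminescence from LgBiT complementation quantified remaining HiBiT-BRM in stably expressing HeLa cells after 24 h compound exposure (top final dose 30 μM, 3-fold, 10 points, duplicate). Degradation expressed as percent relative to DMSO and a 2 μM reference degrader.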

[2] = molecular target: T2, HiBit-BRG1 fusion protein (Homo sapiens, UniProt P51532); assay: HiBiT-BRG1 cell-based degradation assay (Nano-Glo HiBiT lytic detection, 24 h); conditions: HeLa cell line expressing HiBit-BRG1 and LgBit; for Dmax: read-out: BRG1 HiBit Degradation Maximum (%); for DC50: read-out: BRMG1 HiBit Degradation IC50
T2 construct: expressed in transfected cells
How it was run: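 Luminescence from HiBiT/LgBiT complementation after lytic detection reagent was read following 24 h compound exposure of HeLa cells stably carrying HiBiT-BRG1 plus LgBiT (5000 cells/well). Signal scaled to % degradation using DMSO-treated cells as 0% and cells given 2 μM known BRM/BRG1 degrader as 100%.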

T1 sequence (P51531 whole entry, the tested form may be a part): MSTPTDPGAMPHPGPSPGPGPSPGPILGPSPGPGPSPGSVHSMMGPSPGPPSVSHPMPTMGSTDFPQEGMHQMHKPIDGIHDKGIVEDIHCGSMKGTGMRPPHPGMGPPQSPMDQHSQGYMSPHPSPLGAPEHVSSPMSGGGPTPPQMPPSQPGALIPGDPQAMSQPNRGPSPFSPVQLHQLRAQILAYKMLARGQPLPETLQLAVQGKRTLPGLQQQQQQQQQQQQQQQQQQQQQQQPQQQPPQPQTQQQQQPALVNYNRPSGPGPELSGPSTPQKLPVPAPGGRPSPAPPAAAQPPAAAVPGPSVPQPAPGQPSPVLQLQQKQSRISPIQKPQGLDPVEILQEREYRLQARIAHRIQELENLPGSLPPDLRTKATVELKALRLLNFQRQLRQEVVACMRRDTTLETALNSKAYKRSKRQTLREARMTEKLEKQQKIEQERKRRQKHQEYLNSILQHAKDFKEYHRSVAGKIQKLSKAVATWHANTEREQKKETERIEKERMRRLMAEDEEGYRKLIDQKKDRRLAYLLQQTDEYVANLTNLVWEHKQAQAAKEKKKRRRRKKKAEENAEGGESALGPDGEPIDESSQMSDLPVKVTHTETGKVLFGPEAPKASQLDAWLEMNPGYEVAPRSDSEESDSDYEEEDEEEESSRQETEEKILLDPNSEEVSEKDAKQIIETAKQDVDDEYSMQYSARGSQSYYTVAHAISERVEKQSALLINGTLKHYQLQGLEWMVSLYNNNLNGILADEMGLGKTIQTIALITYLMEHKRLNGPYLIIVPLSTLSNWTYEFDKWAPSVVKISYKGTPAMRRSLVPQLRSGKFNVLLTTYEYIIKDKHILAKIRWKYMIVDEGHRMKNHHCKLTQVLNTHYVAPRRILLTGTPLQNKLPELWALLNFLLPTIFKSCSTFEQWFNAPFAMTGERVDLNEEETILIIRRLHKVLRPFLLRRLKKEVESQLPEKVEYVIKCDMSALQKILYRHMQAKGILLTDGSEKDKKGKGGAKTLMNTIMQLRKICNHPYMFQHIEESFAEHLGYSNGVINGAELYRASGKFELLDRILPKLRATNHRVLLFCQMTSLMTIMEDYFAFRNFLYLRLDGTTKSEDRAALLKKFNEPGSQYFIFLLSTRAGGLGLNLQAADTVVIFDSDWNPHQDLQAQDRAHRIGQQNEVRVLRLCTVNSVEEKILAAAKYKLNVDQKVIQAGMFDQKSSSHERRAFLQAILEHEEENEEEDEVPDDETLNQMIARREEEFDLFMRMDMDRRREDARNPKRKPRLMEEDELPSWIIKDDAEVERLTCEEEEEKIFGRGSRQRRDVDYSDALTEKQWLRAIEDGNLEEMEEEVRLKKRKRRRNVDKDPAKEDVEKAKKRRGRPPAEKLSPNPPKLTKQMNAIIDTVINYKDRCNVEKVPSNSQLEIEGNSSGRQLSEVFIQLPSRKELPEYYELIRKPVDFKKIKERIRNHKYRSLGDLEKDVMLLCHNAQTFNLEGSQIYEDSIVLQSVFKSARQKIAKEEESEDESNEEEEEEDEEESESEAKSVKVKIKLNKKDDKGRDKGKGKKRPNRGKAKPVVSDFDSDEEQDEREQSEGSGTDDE
T2 sequence (P51532 whole entry, the tested form may be a part): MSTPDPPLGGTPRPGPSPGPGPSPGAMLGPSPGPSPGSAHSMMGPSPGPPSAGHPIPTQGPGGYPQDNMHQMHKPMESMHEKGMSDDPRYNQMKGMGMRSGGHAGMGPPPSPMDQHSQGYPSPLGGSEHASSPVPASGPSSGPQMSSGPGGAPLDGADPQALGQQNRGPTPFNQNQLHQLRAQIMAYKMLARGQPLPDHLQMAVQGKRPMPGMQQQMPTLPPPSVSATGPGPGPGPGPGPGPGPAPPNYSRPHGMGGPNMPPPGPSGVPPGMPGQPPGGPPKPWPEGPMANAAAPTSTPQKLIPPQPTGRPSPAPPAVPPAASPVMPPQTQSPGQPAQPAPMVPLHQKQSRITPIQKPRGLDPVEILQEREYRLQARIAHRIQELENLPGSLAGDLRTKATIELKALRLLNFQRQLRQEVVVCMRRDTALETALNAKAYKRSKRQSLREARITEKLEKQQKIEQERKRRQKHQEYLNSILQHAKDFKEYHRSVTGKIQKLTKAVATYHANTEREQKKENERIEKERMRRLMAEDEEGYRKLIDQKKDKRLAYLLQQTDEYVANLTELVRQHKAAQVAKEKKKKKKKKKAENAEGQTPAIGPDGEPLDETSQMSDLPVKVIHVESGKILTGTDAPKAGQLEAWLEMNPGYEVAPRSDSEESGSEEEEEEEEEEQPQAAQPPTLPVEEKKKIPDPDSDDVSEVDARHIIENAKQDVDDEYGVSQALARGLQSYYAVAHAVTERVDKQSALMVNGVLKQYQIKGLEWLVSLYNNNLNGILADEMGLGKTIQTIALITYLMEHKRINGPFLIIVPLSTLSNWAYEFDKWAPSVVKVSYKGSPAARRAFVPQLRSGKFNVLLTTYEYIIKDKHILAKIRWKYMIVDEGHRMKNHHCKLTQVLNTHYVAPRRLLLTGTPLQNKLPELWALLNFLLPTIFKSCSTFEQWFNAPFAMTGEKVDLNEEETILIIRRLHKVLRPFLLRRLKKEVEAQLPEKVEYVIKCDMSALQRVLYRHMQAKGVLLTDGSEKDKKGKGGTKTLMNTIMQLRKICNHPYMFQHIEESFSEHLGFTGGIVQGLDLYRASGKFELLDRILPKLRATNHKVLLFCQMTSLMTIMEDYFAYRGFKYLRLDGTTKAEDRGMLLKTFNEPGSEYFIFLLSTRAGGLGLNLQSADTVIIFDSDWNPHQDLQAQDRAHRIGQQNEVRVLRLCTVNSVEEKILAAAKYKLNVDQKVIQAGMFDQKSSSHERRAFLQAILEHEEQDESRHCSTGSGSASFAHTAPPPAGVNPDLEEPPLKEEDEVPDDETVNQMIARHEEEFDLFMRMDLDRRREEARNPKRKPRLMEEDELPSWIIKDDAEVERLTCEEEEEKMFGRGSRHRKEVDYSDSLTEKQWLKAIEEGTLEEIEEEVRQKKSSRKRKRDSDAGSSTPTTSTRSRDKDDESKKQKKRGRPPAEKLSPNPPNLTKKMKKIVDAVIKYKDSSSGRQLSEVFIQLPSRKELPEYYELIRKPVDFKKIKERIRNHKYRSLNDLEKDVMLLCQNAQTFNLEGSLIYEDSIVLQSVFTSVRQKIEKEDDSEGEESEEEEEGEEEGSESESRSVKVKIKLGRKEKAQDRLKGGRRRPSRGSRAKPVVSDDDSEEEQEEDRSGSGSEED

In the case of CC(C)C(C(=O)N1C[C@H](O)C[C@H]1C(=O)NC1CCCC1)c1cc(N2CC3(CC(c4cc5nnc(-c6ccccc6O)cc5n4C4CCC4)C3)C2)no1 (stereo partly drawn) [Compound 119, (2S,4R)-1-(2-(3-(6-(5-cyclobutyl-3-(2-hydroxyphenyl)-5H-pyrrolo[3,2-c]pyridazin-6-yl)-2-azaspiro[3.3]heptan-2-yl)isoxazol-5-yl)-3-methylbutanoyl)-N-cyclopentyl-4-hydroxypyrrolidine-2-carboxamide], the “BRM HiBit Degradation Maximum (%)” value [1] is reported as “A (“A” indicates maximum degradation ≥75%)”, the DC50 [1] is reported as over 10 nM and the Dmax [2] is reported as under 50%.

In the case of Cc1ncsc1-c1ccc([C@H](C)NC(=O)[C@@H]2C[C@@H](O)CN2C(=O)[C@@H](c2cc(OCC(=O)N3CC(c4cc5nnc(-c6ccccc6O)cc5[nH]4)C3)no2)C(C)C)cc1 [Compound 7, (2S,4R)-4-hydroxy-1-((R)-2-(3-(2-(3-(3-(2-hydroxyphenyl)-5H-pyrrolo[3,2-c]pyridazin-6-yl)azetidin-1-yl)-2-oxoethoxy)isoxazol-5-yl)-3-methylbutanoyl)-N-((S)-1-(4-(4-methylthiazol-5-yl)phenyl)ethyl)pyrrolidine-2-carboxamide], the “BRM HiBit Degradation Maximum (%)” value [1] is reported as “A (“A” indicates maximum degradation ≥75%)”, the DC50 [1] is reported as over 100 nM and the Dmax [2] is reported as under 50%.

For Cc1ncsc1-c1ccc([C@H](C)NC(=O)[C@@H]2C[C@@H](O)CN2C(=O)[C@@H](C(C)C)n2cc(-c3cnc(N4CC[C@@H](c5cc6nnc(-c7ccccc7O)cc6n5C5CC5)C4)nc3)nn2)cc1 [Compound 72, (2S,4R)-1-((R)-2-(4-(2-((R)-3-(5-cyclopropyl-3-(2-hydroxyphenyl)-5H-pyrrolo[3,2-c]pyridazin-6-yl)pyrrolidin-1-yl)pyrimidin-5-yl)-1H-1,2,3-triazol-1-yl)-3-methylbutanoyl)-4-hydroxy-N-((S)-1-(4-(4-methylthiazol-5-yl)phenyl)ethyl)pyrrolidine-2-carboxamide], the “BRM HiBit Degradation Maximum (%)” value [1] was “A (“A” indicates maximum degradation ≥75%)”, the DC50 [1] was under 10 nM and the Dmax [2] was under 50%.

With Cc1ncsc1-c1ccc([C@H](C)NC(=O)[C@@H]2C[C@@H](O)CN2C(=O)[C@@H](c2cc(-c3cnc(N4CC[C@H](c5cc6nnc(-c7cc(F)cc(Cl)c7O)cc6n5C5CC5)C4)nc3)no2)C(C)C)cc1 [Compound 73, (2S,4R)-1-((R)-2-(3-(2-((S)-3-(3-(3-chloro-5-fluoro-2-hydroxyphenyl)-5-cyclopropyl-5H-pyrrolo[3,2-c]pyridazin-6-yl)pyrrolidin-1-yl)pyrimidin-5-yl)isoxazol-5-yl)-3-methylbutanoyl)-4-hydroxy-N-((S)-1-(4-(4-methylthiazol-5-yl)phenyl)ethyl)pyrrolidine-2-carboxamide] the “BRM HiBit Degradation Maximum (%)” value [1] was “B (“B” indicates maximum degradation ≥50%)”, the DC50 [1] was over 10 nM and the Dmax [2] was over 50%. It also gave a DC50 [2] of over 10 nM.

With Cc1ncsc1-c1ccc([C@H](C)NC(=O)[C@@H]2C[C@@H](O)CN2C(=O)[C@H](c2cc(-c3ccnc(N4CC[C@H](c5cc6nnc(-c7ccccc7O)cc6n5C5CC5)C4)n3)no2)C(C)C)cc1 [Compound 40] the “BRM HiBit Degradation Maximum (%)” value [1] was “C (“C” indicates maximum degradation <50%)” and the Dmax [2] was under 50%.

In the case of Cc1ncsc1-c1ccc([C@H](C)NC(=O)[C@@H]2C[C@@H](O)CN2C(=O)[C@@H](c2cc(-c3cnc(N4CC[C@@H](c5cc6nnc(-c7ccccc7O)cc6n5C5(C)CC5)C4)nc3)no2)C(C)C)cc1 [Compound 103, (2S,4R)-4-hydroxy-1-((R)-2-(3-(2-((R)-3-(3-(2-hydroxyphenyl)-5-(1-methylcyclopropyl)-5H-pyrrolo[3,2-c]pyridazin-6-yl)pyrrolidin-1-yl)pyrimidin-5-yl)isoxazol-5-yl)-3-methylbutanoyl)-N-((S)-1-(4-(4-methylthiazol-5-yl)phenyl)ethyl)pyrrolidine-2-carboxamide], the “BRM HiBit Degradation Maximum (%)” value [1] is reported as “A (“A” indicates maximum degradation ≥75%)”, the DC50 [1] is reported as under 10 nM and the Dmax [2] is reported as over 50%. For the same compound, the DC50 [2] was under 10 nM.

Cc1ncsc1-c1ccc([C@H](C)NC(=O)[C@@H]2C[C@@H](O)CN2C(=O)[C@@H](c2cc(OCCN3CC(c4cc5nnc(-c6ccccc6O)cc5n4C4COC4)C3)no2)C(C)C)cc1 [Compound 16, (2S,4R)-4-hydroxy-1-((R)-2-(3-(2-(3-(3-(2-hydroxyphenyl)-5-(oxetan-3-yl)-5H-pyrrolo[3,2-c]pyridazin-6-yl)azetidin-1-yl)ethoxy)isoxazol-5-yl)-3-methylbutanoyl)-N—((S)-1-(4-(4-methylthiazol-5-yl)phenyl)ethyl)pyrrolidine-2-carboxamide] was tested, and the “BRM HiBit Degradation Maximum (%)” value [1] was “C (“C” indicates maximum degradation <50%)” and the Dmax [2] was under 50%.

In the case of Cc1ncsc1-c1ccc([C@H](C)NC(=O)[C@@H]2C[C@@H](O)CN2C(=O)[C@H](c2cc(-c3cnc(N4CCC(c5cc6nnc(-c7ccccc7O)cc6[nH]5)CC4)nc3)no2)C(C)C)cc1 [Compound 19, (2S,4R)-4-hydroxy-1-[(2S)-2-[3-(2-{4-[3-(2-hydroxyphenyl)-5H-pyrrolo[3,2-c]pyridazin-6-yl]piperidin-1-yl}pyrimidin-5-yl)-1,2-oxazol-5-yl]-3-methylbutanoyl]-N-[(1S)-1-[4-(4-methyl-1,3-thiazol-5-yl)phenyl]ethyl]pyrrolidine-2-carboxamide], the “BRM HiBit Degradation Maximum (%)” value [1] is reported as “B (“B” indicates maximum degradation ≥50%)”, the DC50 [1] is reported as over 10 nM and the Dmax [2] is reported as under 50%.

Cc1ncsc1-c1ccc([C@H](C)NC(=O)[C@@H]2C[C@@H](O)CN2C(=O)[C@@H](c2cc(-c3cnc(N4CC[C@@H](c5cc6nnc(-c7cccc(F)c7O)cc6n5C5CC5)C4)nc3)no2)C(C)C)cc1 [Compound 106, (2S,4R)-1-((R)-2-(3-(2-((R)-3-(5-cyclopropyl-3-(3-fluoro-2-hydroxyphenyl)-5H-pyrrolo[3,2-c]pyridazin-6-yl)pyrrolidin-1-yl)pyrimidin-5-yl)isoxazol-5-yl)-3-methylbutanoyl)-4-hydroxy-N-((S)-1-(4-(4-methylthiazol-5-yl)phenyl)ethyl)pyrrolidine-2-carboxamide] was tested, and the “BRM HiBit Degradation Maximum (%)” value [1] was “B (“B” indicates maximum degradation ≥50%)”, the DC50 [1] was over 10 nM and the Dmax [2] was under 50%.

For Cc1ncsc1-c1ccc(CNC(=O)[C@@H]2C[C@@H](O)CN2C(=O)[C@@H](c2cc(N3CC4(CC(c5cc6nnc(-c7ccccc7O)cc6n5C5CCC5)C4)C3)no2)C(C)C)cc1 [Compound 48, (2S,4R)-1-((R)-2-(3-(6-(5-cyclobutyl-3-(2-hydroxyphenyl)-5H-pyrrolo[3,2-c]pyridazin-6-yl)-2-azaspiro[3.3]heptan-2-yl)isoxazol-5-yl)-3-methylbutanoyl)-4-hydroxy-N-(4-(4-methylthiazol-5-yl)benzyl)pyrrolidine-2-carboxamide], the “BRM HiBit Degradation Maximum (%)” value [1] was “A (“A” indicates maximum degradation ≥75%)”, the DC50 [1] was over 10 nM and the Dmax [2] was under 50%.

With Cc1ncsc1-c1ccc([C@H](C)NC(=O)[C@@H]2C[C@@H](O)CN2C(=O)[C@H](c2cc(-c3cnc(N4CC[C@H](c5cc6nnc(-c7ccccc7O)cc6n5C5CC5)C4)nc3)no2)C(C)C)cc1 [Compound 35, (2S,4R)-1-((S)-2-(3-(2-((S)-3-(5-cyclopropyl-3-(2-hydroxyphenyl)-5H-pyrrolo[3,2-c]pyridazin-6-yl)pyrrolidin-1-yl)pyrimidin-5-yl)isoxazol-5-yl)-3-methylbutanoyl)-4-hydroxy-N—((S)-1-(4-(4-methylthiazol-5-yl)phenyl)ethyl)pyrrolidine-2-carboxamide] the “BRM HiBit Degradation Maximum (%)” value [1] was “A (“A” indicates maximum degradation ≥75%)”, the DC50 [1] was over 100 nM and the Dmax [2] was under 50%.

Cc1ncsc1-c1ccc([C@H](C)NC(=O)[C@@H]2C[C@@H](O)CN2C(=O)[C@@H](c2cc(-c3cnc(N4CC5(CC(c6cc7nnc(-c8ccccc8O)cc7n6C6CCC6)C5)C4)nc3)no2)C(C)C)cc1 [Compound 62, (2S,4R)-1-((R)-2-(3-(2-(6-(5-cyclobutyl-3-(2-hydroxyphenyl)-5H-pyrrolo[3,2-c]pyridazin-6-yl)-2-azaspiro[3.3]heptan-2-yl)pyrimidin-5-yl)isoxazol-5-yl)-3-methylbutanoyl)-4-hydroxy-N-((S)-1-(4-(4-methylthiazol-5-yl)phenyl)ethyl)pyrrolidine-2-carboxamide] was tested, and the “BRM HiBit Degradation Maximum (%)” value [1] was “A (“A” indicates maximum degradation ≥75%)”, the DC50 [1] was under 10 nM and the Dmax [2] was over 50%. For the same compound, the DC50 [2] was over 10 nM.

Cc1ncsc1-c1ccc([C@H](C)NC(=O)[C@@H]2C[C@@H](O)CN2C(=O)[C@@H](c2cc(OCCCN3CC(c4cc5nnc(-c6ccccc6O)cc5n4C)C3)no2)C(C)C)cc1 [Compound 11, (2S,4R)-4-hydroxy-1-((R)-2-(3-(3-(3-(3-(2-hydroxyphenyl)-5-methyl-5H-pyrrolo[3,2-c]pyridazin-6-yl)azetidin-1-yl)propoxy)isoxazol-5-yl)-3-methylbutanoyl)-N-((S)-1-(4-(4-methylthiazol-5-yl)phenyl)ethyl)pyrrolidine-2-carboxamide] was tested, and the “BRM HiBit Degradation Maximum (%)” value [1] was “A (“A” indicates maximum degradation ≥75%)”, the DC50 [1] was over 10 nM and the Dmax [2] was under 50%.

In the case of CCn1c(C2CCN(c3ncc(-c4cc([C@H](C(=O)N5C[C@H](O)C[C@H]5C(=O)N[C@@H](C)c5ccc(-c6scnc6C)cc5)C(C)C)on4)cn3)CC2)cc2nnc(-c3ccccc3O)cc21 [Compound 23, (2S,4R)-1-[(2R)-2-[3-(2-{4-[5-ethyl-3-(2-hydroxyphenyl)pyrrolo[3,2-c]pyridazin-6-yl]piperidin-1-yl}pyrimidin-5-yl)-1,2-oxazol-5-yl]-3-methylbutanoyl]-4-hydroxy-N-[(1S)-1-[4-(4-methyl-1,3-thiazol-5-yl)phenyl]ethyl]pyrrolidine-2-carboxamide], the “BRM HiBit Degradation Maximum (%)” value [1] is reported as “A (“A” indicates maximum degradation ≥75%)”, the DC50 [1] is reported as under 10 nM and the Dmax [2] is reported as over 50%. For the same compound, the DC50 [2] was over 10 nM.
